Assay results: ChEMBL document CHEMBL4325873, “Decreasing the CYP2D6 contribution to metabolism of a CK1ε inhibitor” (Bioorg Med Chem Lett, 2018)

target: Casein kinase I isoform epsilon (Homo sapiens, UniProt P49674); experiment: Inhibition of human CK1 epsilon using casein as substrate after 2 hrs in presence of [33P]-ATP by scintillation counting analysis; settings: not given
Sequence (P49674 whole entry, canonical isoform): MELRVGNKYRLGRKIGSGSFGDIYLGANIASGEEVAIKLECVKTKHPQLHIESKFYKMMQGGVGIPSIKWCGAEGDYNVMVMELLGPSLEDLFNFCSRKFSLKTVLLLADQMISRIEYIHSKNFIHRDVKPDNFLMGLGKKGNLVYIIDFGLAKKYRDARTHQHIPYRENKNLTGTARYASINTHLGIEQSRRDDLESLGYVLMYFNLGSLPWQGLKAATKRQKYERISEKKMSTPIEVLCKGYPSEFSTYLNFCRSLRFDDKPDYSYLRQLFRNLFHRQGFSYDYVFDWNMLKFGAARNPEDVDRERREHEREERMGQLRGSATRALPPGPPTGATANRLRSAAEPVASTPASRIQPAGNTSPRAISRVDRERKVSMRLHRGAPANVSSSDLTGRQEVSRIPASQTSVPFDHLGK

SMILES	IC50 [nM]
Fc1ccc(-c2nc3ccc(N4CC5CC4CN5)nn3c2-c2ccncc2)cc1 (stereo not drawn)	15.7
CC1(C)CN(c2ccc3nc(-c4ccc(F)cc4)c(-c4ccncc4)n3n2)CCN1	14.6
c1ccc(-c2nc3ccc(N4CC5CC4CN5)nn3c2-c2ccncc2)cc1 (stereo not drawn)	70
c1ccc(-c2nc3ccc(N4CCC(N5CCCC5)CC4)nn3c2-c2ccncc2)cc1	26
C[C@H]1CN(c2ccc3nc(-c4ccccc4)c(-c4ccncc4)n3n2)CCN1	13.7
C[C@H]1CN(c2ccc3nc(-c4ccc(F)cc4)c(-c4ccncc4)n3n2)CCN1	14.2
CC1(C)CN(c2ccc3nc(-c4cc(F)cc(F)c4)c(-c4ccncc4)n3n2)CCN1	43

Now those with a lower IC50, led by results:

IC50 [nM]	SMILES
4.6	CC1(C)CN(c2ccc3nc(-c4ccccc4)c(-c4ccncc4)n3n2)CCN1
1	Fc1ccc(-c2nc3ccc(N4CCC(N5CCCC5)CC4)nn3c2-c2ccncc2)cc1
8.6	Cc1cc(C)cc(-c2nc3ccc(N4CCNC(C)(C)C4)nn3c2-c2ccncc2)c1

target: T1, Cytochrome P450 2D6 (Homo sapiens, UniProt P10635); experiment: Drug metabolism assessed as recombinant CYP2D6 (unknown origin)-mediated 4-(3-(pyridin-4-yl)-6-(4-(pyrrolidin-1-yl)piperidin-1-yl)imidazo[1,2-b]pyridazin-2-yl)phenol formation; type: ADME; settings: recombinant enzyme
T1 sequence (P10635 whole entry): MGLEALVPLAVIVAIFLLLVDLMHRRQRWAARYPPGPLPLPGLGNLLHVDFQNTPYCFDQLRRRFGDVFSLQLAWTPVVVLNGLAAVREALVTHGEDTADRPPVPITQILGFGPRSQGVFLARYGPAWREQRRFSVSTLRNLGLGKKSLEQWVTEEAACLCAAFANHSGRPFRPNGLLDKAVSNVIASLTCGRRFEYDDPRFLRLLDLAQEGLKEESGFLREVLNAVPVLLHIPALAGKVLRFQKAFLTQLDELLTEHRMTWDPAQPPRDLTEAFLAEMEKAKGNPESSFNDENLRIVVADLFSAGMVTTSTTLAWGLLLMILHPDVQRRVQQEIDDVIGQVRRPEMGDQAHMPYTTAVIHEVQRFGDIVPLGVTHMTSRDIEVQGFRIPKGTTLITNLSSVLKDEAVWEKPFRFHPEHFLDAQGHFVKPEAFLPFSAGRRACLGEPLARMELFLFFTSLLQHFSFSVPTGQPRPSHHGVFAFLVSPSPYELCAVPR

Drug metabolism	SMILES
Metabolite_Detected	c1ccc(-c2nc3ccc(N4CCC(N5CCCC5)CC4)nn3c2-c2ccncc2)cc1

target: T1, Cytochrome P450 2D6; experiment: Drug metabolism assessed as recombinant CYP2D6 (unknown origin)-mediated 3-(3-(pyridin-4-yl)-6-(4-(pyrrolidin-1-yl)-3,4-dihydropyridin-1(2H)-yl)imidazo[1,2-b]pyridazin-2-yl)phenol formation; type: ADME; settings: recombinant enzyme

Drug metabolism	SMILES
Metabolite_Detected	c1ccc(-c2nc3ccc(N4CCC(N5CCCC5)CC4)nn3c2-c2ccncc2)cc1

system: not listed separately; experiment: Drug metabolism in human liver microsomes; type: ADME, Microsome; settings: read-out: Drug metabolism

SMILES	metabolised [%]
Fc1ccc(-c2nc3ccc(N4CC5CC4CN5)nn3c2-c2ccncc2)cc1 (stereo not drawn)	18
CC1(C)CN(c2ccc3nc(-c4ccc(F)cc4)c(-c4ccncc4)n3n2)CCN1	52
c1ccc(-c2nc3ccc(N4CC5CC4CN5)nn3c2-c2ccncc2)cc1 (stereo not drawn)	18
c1ccc(-c2nc3ccc(N4CCC(N5CCCC5)CC4)nn3c2-c2ccncc2)cc1	38.5
C[C@H]1CN(c2ccc3nc(-c4ccccc4)c(-c4ccncc4)n3n2)CCN1	56
C[C@H]1CN(c2ccc3nc(-c4ccc(F)cc4)c(-c4ccncc4)n3n2)CCN1	66
CC1(C)CN(c2ccc3nc(-c4cc(F)cc(F)c4)c(-c4ccncc4)n3n2)CCN1	25

Further lines, results first:

metabolised [%]	SMILES
57	CC1(C)CN(c2ccc3nc(-c4ccccc4)c(-c4ccncc4)n3n2)CCN1
20	Fc1ccc(-c2nc3ccc(N4CCC(N5CCCC5)CC4)nn3c2-c2ccncc2)cc1
13	Cc1cc(C)cc(-c2nc3ccc(N4CCNC(C)(C)C4)nn3c2-c2ccncc2)c1

target: T1, Cytochrome P450 2D6; experiment: Drug metabolism assessed as recombinant CYP2D6 (unknown origin)-mediated 3-(3-(pyridin-4-yl)-6-(4-(pyrrolidin-1-yl)piperidin-1-yl)imidazo[1,2-b]pyridazin-2-yl)phenol formation; type: ADME; settings: recombinant enzyme

Drug metabolism	SMILES
Metabolite_Detected	c1ccc(-c2nc3ccc(N4CCC(N5CCCC5)CC4)nn3c2-c2ccncc2)cc1

target: CYP3A4 (Homo sapiens, UniProt P08684); experiment: Drug metabolism in human liver microsomes assessed as CYP3A4-mediated drug metabolism in presence of ketoconazole; type: ADME; settings: with ketoconazole, read-out: Drug metabolism
Sequence (P08684 whole entry): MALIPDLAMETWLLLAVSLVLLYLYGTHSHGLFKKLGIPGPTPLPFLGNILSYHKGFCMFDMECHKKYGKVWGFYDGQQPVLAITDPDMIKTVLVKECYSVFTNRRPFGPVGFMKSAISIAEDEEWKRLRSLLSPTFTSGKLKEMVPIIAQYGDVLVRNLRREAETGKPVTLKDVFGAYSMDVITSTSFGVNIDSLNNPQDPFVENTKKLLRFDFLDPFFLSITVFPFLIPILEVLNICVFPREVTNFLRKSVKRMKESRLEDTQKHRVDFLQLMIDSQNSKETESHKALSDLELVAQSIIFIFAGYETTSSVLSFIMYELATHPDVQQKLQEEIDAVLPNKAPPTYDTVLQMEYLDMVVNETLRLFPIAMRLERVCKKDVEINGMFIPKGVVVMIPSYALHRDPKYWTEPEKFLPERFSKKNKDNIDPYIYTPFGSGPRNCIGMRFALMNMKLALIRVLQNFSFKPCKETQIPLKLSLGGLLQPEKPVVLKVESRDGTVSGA

SMILES	metabolised [%]
Fc1ccc(-c2nc3ccc(N4CC5CC4CN5)nn3c2-c2ccncc2)cc1 (stereo not drawn)	0
CC1(C)CN(c2ccc3nc(-c4ccc(F)cc4)c(-c4ccncc4)n3n2)CCN1	27
c1ccc(-c2nc3ccc(N4CC5CC4CN5)nn3c2-c2ccncc2)cc1 (stereo not drawn)	1
c1ccc(-c2nc3ccc(N4CCC(N5CCCC5)CC4)nn3c2-c2ccncc2)cc1	24.5
C[C@H]1CN(c2ccc3nc(-c4ccccc4)c(-c4ccncc4)n3n2)CCN1	30
C[C@H]1CN(c2ccc3nc(-c4ccc(F)cc4)c(-c4ccncc4)n3n2)CCN1	46
CC1(C)CN(c2ccc3nc(-c4cc(F)cc(F)c4)c(-c4ccncc4)n3n2)CCN1	15

Further lines, results first:

metabolised [%]	SMILES
15	CC1(C)CN(c2ccc3nc(-c4ccccc4)c(-c4ccncc4)n3n2)CCN1
16	Fc1ccc(-c2nc3ccc(N4CCC(N5CCCC5)CC4)nn3c2-c2ccncc2)cc1
5	Cc1cc(C)cc(-c2nc3ccc(N4CCNC(C)(C)C4)nn3c2-c2ccncc2)c1
